Measurements: ChEMBL document CHEMBL2311351, “Synthesis and biological evaluation of triazolothienopyrimidine derivatives as novel HIV-1 replication inhibitors” (Bioorg Med Chem Lett, 2013)
pEC50: −log10 of the molar value.

Assays:
[1] = test system: Human immunodeficiency virus 1; test: Antiviral activity against HIV1 LAI infected in CEMx174-LTR-GFP cells assessed as inhibition of viral replication after 5 days by fluorescence assay; type: functional, organism-based; settings: for pEC50: Human immunodeficiency virus 1, LAI, 120 h, read-out: EC50
[2] = Cytotoxicity against human CEmx174 cells expressing LTR-GFP; type: cell-based
[3] = Therapeutic index, ratio of CC50 for human CEmx174 cells expressing LTR-GFP to EC50 for HIV1 LAI; settings: read-out: Ratio CC50/EC50
[4] = test system: Human immunodeficiency virus 1; test: Antiviral activity against HIV1 LAI infected in CEMx174-LTR-GFP cells assessed as inhibition of viral replication at 10 uM after 5 days by fluorescence assay; type: functional; settings: Human immunodeficiency virus 1, LAI, 120 h

Structure (SMILES)	pEC50 [1]	EC50 [1]	CC50 [2] [µM]	selectivity ratio [3]	inhibition at 10 µM [4] [%]
O=S(=O)(c1cccc(Cl)c1)c1nnn2c1nc(Nc1ccccc1)c1sccc12	5.64	–	> 50	> 21	–
O=S(=O)(c1cccc(Cl)c1)c1nnn2c1nc(NC1CCCCC1)c1sccc12	5.17	–	> 50	> 7.4	–
Nc1nc2c(S(=O)(=O)c3cccc(Cl)c3)nnn2c2ccsc12	5.80	–	> 50	> 31	–
O=S(=O)(c1cccc(Cl)c1)c1nnn2c1nc(N1CCCCCC1)c1sccc12	5.40	–	35	8.7	–
O=S(=O)(c1cccc(Cl)c1)c1nnn2c1nc(N1CCOCC1)c1sccc12	6.57	–	74	274	–
CC(C)CCNc1nc2c(S(=O)(=O)c3cccc(Cl)c3)nnn2c2ccsc12	–	–	–	–	58
COCCNc1nc2c(S(=O)(=O)c3cccc(Cl)c3)nnn2c2ccsc12	5.72	–	> 50	> 26	–
O=S(=O)(c1cccc(Cl)c1)c1nnn2c1nc(-c1ccccc1Cl)c1sccc12	6.17	–	> 50	> 74	–
O=S(=O)(c1cccc(Cl)c1)c1nnn2c1nc(-c1cccc(Cl)c1)c1sccc12	6.27	–	47	87	–
O=S(=O)(c1cccc(Cl)c1)c1nnn2c1nc(-c1ccc(Cl)cc1)c1sccc12	6.28	–	46	86	–
COc1ccccc1-c1nc2c(S(=O)(=O)c3cccc(Cl)c3)nnn2c2ccsc12	5.89	–	45	34	–
COc1cccc(-c2nc3c(S(=O)(=O)c4cccc(Cl)c4)nnn3c3ccsc23)c1	6.49	–	46	143	–
COc1ccc(-c2nc3c(S(=O)(=O)c4cccc(Cl)c4)nnn3c3ccsc23)cc1	7.22	–	60	1000	–
O=S(=O)(c1cccc(Cl)c1)c1nnn2c1nc(-c1ccc(O)cc1)c1sccc12	6.06	–	10	11	–
O=S(=O)(c1nnn2c1nc(N1CCOCC1)c1sccc12)C1CCCCC1	–	Not Active	> 50	–	–
O=S(=O)(c1ccccc1Cl)c1nnn2c1nc(N1CCOCC1)c1sccc12	5.96	–	56	50	–
COc1cccc(S(=O)(=O)c2nnn3c2nc(N2CCOCC2)c2sccc23)c1	5.96	–	> 50	> 45	–
O=S(=O)(c1cccc(Br)c1)c1nnn2c1nc(N1CCOCC1)c1sccc12	5.48	–	> 50	> 15	–
O=C(Nc1cccc(Cl)c1)c1nnn2c1nc(N1CCOCC1)c1sccc12	6.43	–	> 50	> 135	–
O=C(Nc1ccc(Cl)cc1)c1nnn2c1nc(N1CCOCC1)c1sccc12	4.80	–	57	3.5	–
O=C(c1cccc(Cl)c1)c1nnn2c1nc(N1CCOCC1)c1sccc12	6.03	–	> 50	> 53	–
Cc1ccc(-c2nc3c(S(=O)(=O)c4cccc(Cl)c4)nnn3c3ccsc23)cc1	6.08	–	61	72	–
CN(c1ccccc1)c1nc2c(S(=O)(=O)c3cccc(Cl)c3)nnn2c2ccsc12	5.68	–	> 50	> 23	–
Cc1ccnc2c1NC(=O)c1cccnc1N2C1CC1 [NEVIRAPINE]	6.82	–	> 10	–	–

Now from value to compound, other results behind:

pEC50 [1]	EC50 [1]	Structure (SMILES)	CC50 [2] [µM]	selectivity ratio [3]	inhibition at 10 µM [4] [%]
5.01	–	Cc1ccc(S(=O)(=O)c2nnn3c2nc(NCCC(C)C)c2sccc23)cc1C	–	–	–
5.66	–	CC(C)Nc1nc2c(S(=O)(=O)c3cccc(Cl)c3)nnn2c2ccsc12	> 50	> 22	–
6.29	–	CCOc1ccc(-c2nc3c(S(=O)(=O)c4cccc(Cl)c4)nnn3c3ccsc23)cc1	61	119	–
5.51	–	CN(C)c1ccc(-c2nc3c(S(=O)(=O)c4cccc(Cl)c4)nnn3c3ccsc23)cc1	> 50	> 16	–
5.68	–	CN1CCN(c2nc3c(S(=O)(=O)c4cccc(Cl)c4)nnn3c3ccsc23)CC1	> 50	> 23	–
6.15	–	O=S(=O)(c1cccc(Cl)c1)c1nnn2c1nc(N1CCN(Cc3ccccc3)CC1)c1sccc12	> 50	> 70	–
–	Not Active	CCS(=O)(=O)c1nnn2c1nc(N1CCOCC1)c1sccc12	> 50	–	–
4.80	–	O=S(=O)(c1ccccc1)c1nnn2c1nc(N1CCOCC1)c1sccc12	39	2.4	–
5.30	–	O=S(=O)(c1ccc(Cl)cc1)c1nnn2c1nc(N1CCOCC1)c1sccc12	70	14	–
6.07	–	O=S(=O)(c1cccc(F)c1)c1nnn2c1nc(N1CCOCC1)c1sccc12	> 50	> 58	–
5.00	–	O=S(=O)(c1cccc(OC(F)(F)F)c1)c1nnn2c1nc(N1CCOCC1)c1sccc12	> 50	> 5	–
5.40	–	O=S(=O)(c1cc(Cl)cc(Cl)c1)c1nnn2c1nc(N1CCOCC1)c1sccc12	51	12.7	–
6.10	–	CCOC(=O)c1nnn2c1nc(N1CCOCC1)c1sccc12	> 50	> 62	–
5.32	–	O=C(O)c1nnn2c1nc(N1CCOCC1)c1sccc12	42	8.7	–
5.46	–	O=C(Nc1ccccc1Cl)c1nnn2c1nc(N1CCOCC1)c1sccc12	> 50	> 14	–
6.57	–	O=S(=O)(c1cccc(Cl)c1)c1nnn2c1nc(-c1ccccc1)c1sccc12	61	225	–
6.72	–	O=S(=O)(c1cccc(Cl)c1)c1nnn2c1nc(N1CCCCC1)c1sccc12	75	394	–
